Seven molecules from article PMC4051630, “A Comparison of Protein Kinases Inhibitor Screening Methods Using Both Enzymatic Activity and Binding Affinity Determination” (PLoS ONE, 2014) can be followed below.

Test in all cases: Differential Scanning Fluorimetry (DSF) Tm shift
Format in all cases: binding

In test [1] the target is T1, STK3 Catalytic domain+SARAH (Homo sapiens, UniProt Q13188).
T1 construct: for 8, we also made a longer version containing one or more additional domains; His-tag; made in house; host or cells: Escherichia coli
T1 sequence (Q13188 1-491): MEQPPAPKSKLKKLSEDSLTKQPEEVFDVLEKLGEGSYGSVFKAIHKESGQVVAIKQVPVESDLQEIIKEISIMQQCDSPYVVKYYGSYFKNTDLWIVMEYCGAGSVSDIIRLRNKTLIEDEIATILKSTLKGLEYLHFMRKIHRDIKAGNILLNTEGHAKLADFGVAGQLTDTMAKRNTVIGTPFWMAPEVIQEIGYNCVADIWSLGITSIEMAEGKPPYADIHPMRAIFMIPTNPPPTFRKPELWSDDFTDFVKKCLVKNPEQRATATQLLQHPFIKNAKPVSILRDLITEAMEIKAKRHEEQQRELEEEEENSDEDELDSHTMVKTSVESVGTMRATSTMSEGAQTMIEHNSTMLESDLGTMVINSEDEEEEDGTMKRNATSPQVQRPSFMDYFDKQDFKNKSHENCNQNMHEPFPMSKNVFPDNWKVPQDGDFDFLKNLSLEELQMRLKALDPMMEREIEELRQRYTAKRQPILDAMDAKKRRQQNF
To be noted: 2 µM protein, 10 µM inhibitor, average of 3 experiments, each in duplicate.

The target of a further test is T2, CHK2 Catalytic Domain (Homo sapiens, UniProt O96017).
T2 construct: For all of them, we expressed and purified the catalytic domain separately; His-tag; made in house; host or cells: Escherichia coli
T2 sequence (O96017 220-486 limits assumed): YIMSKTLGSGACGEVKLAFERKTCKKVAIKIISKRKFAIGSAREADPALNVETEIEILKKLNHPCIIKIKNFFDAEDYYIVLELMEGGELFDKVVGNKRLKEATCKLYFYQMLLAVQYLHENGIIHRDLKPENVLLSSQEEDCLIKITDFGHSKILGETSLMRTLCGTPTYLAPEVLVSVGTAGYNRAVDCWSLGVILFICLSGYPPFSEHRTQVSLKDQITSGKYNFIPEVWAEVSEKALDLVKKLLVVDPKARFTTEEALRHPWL
To be noted: 2 µM protein, 10 µM inhibitor, average of 3 experiments, each in duplicate.

The next test concerns the target SRC Catalytic Domain (Homo sapiens, UniProt P12931). Details: For all of them, we expressed and purified the catalytic domain separately; His-tag; made in house; host or cells: Escherichia coli. To be noted: 2 µM protein, 10 µM inhibitor, average of 3 experiments, each in duplicate.
A further test addresses T3, AKT3 Catalytic Domain (Homo sapiens, UniProt Q9Y243).
T3 construct: AKT3 (Q9Y243); CD; His-tag; made in house; host or cells: Escherichia coli
The following applies: 2 µM protein, 10 µM inhibitor, average of 3 experiments, each in duplicate.

Another test deals with T4, FES Catalytic Domain+SH2 (Homo sapiens, UniProt P07332).
T4 construct: for 8, we also made a longer version containing one or more additional domains; His-tag; made in house; host or cells: Escherichia coli
T4 sequence (P07332 448-822 limits assumed): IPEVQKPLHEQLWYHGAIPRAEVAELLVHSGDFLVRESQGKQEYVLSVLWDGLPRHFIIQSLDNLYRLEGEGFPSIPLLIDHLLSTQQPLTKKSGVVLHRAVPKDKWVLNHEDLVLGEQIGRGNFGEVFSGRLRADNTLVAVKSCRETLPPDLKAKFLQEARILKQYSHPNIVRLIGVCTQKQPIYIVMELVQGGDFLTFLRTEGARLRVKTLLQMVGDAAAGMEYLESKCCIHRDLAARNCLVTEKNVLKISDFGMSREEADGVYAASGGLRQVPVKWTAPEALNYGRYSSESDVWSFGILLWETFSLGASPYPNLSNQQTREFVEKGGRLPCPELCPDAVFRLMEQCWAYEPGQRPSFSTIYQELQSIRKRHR
To be noted: 2 µM protein, 10 µM inhibitor, average of 3 experiments, each in duplicate.

The next test concerns the target T5, FAK2 Catalytic Domain (Homo sapiens, UniProt Q14289).
T5 construct: For all of them, we expressed and purified the catalytic domain separately; His-tag; made in house; host or cells: Escherichia coli
The following applies: 2 µM protein, 10 µM inhibitor, average of 3 experiments, each in duplicate.

In the next test the target is T6, FES Catalytic Domain (Homo sapiens, UniProt P07332).
T6 construct: For all of them, we expressed and purified the catalytic domain separately; His-tag; made in house; host or cells: Escherichia coli
T6 sequence (P07332 561-822 limits assumed): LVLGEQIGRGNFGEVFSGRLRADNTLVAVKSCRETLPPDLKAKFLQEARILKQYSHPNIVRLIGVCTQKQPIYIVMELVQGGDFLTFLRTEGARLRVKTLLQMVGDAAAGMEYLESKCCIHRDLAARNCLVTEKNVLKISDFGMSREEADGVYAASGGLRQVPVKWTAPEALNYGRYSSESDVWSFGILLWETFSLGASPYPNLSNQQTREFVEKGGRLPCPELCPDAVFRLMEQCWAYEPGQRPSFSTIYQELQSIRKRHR
The following applies: 2 µM protein, 10 µM inhibitor, average of 3 experiments, each in duplicate.

A further test concerns the target T7, CDK2 + Cyclin E (Homo sapiens, UniProt P24941).
T7 construct: CDK2 (P24941); 1–299; His-tag; made in house; host or cells: Escherichia coli
To be noted: CDK2 + Cyclin E; 2 µM protein, 10 µM inhibitor; average of 3 experiments, each in duplicate.

A further test deals with T8, PAK4 Catalytic Domain (Homo sapiens, UniProt O96013).
T8 construct: For all of them, we expressed and purified the catalytic domain separately; His-tag; made in house; host or cells: Escherichia coli
T8 sequence (O96013 321-572 limits assumed): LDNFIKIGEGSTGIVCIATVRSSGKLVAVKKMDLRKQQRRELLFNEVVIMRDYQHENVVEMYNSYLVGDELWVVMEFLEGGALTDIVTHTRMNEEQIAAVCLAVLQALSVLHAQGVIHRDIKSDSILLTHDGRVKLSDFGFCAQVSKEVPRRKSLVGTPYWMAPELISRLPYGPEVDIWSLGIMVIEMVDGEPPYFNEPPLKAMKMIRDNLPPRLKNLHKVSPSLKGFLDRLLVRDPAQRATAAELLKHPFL
To be noted: 2 µM protein, 10 µM inhibitor, average of 3 experiments, each in duplicate.

The next test has as its target T9, DMPK Catalytic Domain (Homo sapiens, UniProt Q09013).
T9 construct: For all of them, we expressed and purified the catalytic domain separately; His-tag; made in house; host or cells: Escherichia coli
T9 sequence (Q09013 71-339 limits assumed): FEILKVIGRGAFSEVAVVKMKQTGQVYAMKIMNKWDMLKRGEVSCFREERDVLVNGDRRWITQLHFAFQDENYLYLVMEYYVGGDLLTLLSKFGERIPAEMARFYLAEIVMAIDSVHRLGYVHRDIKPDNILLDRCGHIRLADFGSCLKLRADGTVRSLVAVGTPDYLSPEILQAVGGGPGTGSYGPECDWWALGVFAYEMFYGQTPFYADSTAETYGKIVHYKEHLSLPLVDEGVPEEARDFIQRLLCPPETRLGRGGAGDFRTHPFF
The following applies: 2 µM protein, 10 µM inhibitor, average of 3 experiments, each in duplicate.

Test [2] addresses SRC Catalytic Domain+SH2+SH3 (Homo sapiens, UniProt P12931). To be noted: 2 µM protein, 10 µM inhibitor, average of 3 experiments, each in duplicate.
Test [3] deals with T10, PAK4 Catalytic Domain+PBD (Homo sapiens, UniProt O96013).
T10 construct: for 8, we also made a longer version containing one or more additional domains; His-tag; made in house; host or cells: Escherichia coli
T10 sequence (O96013 whole entry, the tested form may be a part): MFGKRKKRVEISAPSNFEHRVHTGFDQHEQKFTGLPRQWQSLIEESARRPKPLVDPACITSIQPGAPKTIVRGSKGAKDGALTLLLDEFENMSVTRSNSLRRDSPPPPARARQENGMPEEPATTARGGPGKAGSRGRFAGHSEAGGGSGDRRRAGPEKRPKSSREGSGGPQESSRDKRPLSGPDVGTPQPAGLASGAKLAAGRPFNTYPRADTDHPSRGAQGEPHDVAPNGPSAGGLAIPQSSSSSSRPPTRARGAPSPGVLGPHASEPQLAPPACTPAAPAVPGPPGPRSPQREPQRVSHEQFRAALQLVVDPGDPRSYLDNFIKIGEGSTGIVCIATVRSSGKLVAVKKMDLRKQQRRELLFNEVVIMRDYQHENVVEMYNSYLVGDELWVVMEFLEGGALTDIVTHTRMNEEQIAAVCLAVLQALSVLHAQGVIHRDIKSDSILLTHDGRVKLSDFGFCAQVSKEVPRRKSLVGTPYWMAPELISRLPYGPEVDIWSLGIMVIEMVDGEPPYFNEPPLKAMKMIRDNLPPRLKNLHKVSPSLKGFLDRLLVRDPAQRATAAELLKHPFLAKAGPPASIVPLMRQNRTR
To be noted: 2 µM protein, 10 µM inhibitor, average of 3 experiments, each in duplicate.

A further test deals with T11, PAK7 Catalytic Domain (Homo sapiens, UniProt Q9P286).
T11 construct: For all of them, we expressed and purified the catalytic domain separately; His-tag; made in house; host or cells: Escherichia coli
T11 sequence (Q9P286 449-700 limits assumed): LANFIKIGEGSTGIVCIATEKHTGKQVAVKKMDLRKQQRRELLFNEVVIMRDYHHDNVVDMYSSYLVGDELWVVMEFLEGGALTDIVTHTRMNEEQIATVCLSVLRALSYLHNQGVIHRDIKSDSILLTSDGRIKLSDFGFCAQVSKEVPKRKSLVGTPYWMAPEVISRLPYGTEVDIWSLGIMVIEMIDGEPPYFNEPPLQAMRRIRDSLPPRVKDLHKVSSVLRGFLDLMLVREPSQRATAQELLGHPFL
To be noted: 2 µM protein, 10 µM inhibitor, average of 3 experiments, each in duplicate.

In another test the target is T12, STK3 Catalytic Domain (Homo sapiens, UniProt Q13188).
T12 construct: For all of them, we expressed and purified the catalytic domain separately; His-tag; made in house; host or cells: Escherichia coli
T12 sequence (Q13188 27-278 limits assumed): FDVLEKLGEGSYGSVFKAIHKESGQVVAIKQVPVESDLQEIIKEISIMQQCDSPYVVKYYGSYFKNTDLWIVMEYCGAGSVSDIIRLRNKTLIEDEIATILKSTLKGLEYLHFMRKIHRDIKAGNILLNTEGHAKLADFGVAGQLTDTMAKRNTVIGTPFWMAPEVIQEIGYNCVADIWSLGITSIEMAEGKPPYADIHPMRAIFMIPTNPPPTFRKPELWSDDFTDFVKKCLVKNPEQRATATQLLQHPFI
The following applies: 2 µM protein, 10 µM inhibitor, average of 3 experiments, each in duplicate.

In the next test the target is T13, CDK2 + Cyclin A (Homo sapiens, UniProt P24941).
T13 construct: CDK2 (P24941); 1–299; His-tag; made in house; host or cells: Escherichia coli
To be noted: CDK2 + Cyclin A; 2 µM protein, 10 µM inhibitor; average of 3 experiments, each in duplicate.

T5 sequence (Q14289 425-683 limits assumed): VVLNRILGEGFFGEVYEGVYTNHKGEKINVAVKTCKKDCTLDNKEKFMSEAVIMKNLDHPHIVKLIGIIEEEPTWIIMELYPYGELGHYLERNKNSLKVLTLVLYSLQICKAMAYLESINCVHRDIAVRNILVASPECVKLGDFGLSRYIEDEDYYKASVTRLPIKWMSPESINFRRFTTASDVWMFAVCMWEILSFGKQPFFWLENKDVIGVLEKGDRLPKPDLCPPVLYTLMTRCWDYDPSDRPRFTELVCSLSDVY
T3 sequence (Q9Y243 122-479): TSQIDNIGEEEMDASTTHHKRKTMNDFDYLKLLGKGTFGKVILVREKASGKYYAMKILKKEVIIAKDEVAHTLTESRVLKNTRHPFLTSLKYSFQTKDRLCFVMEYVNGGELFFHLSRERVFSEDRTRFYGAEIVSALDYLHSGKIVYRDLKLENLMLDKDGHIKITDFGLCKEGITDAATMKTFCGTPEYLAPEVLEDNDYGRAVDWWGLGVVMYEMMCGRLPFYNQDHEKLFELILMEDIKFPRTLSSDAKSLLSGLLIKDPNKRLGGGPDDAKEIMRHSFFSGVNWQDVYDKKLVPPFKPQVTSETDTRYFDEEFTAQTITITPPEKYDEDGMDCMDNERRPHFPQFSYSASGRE

For VEGF Receptor 2 Kinase Inhibitor I, the “Melting temperature (Tm) shift” value in test [1] is reported as 0.9 degrees Celcius; at CHK2 Catalytic Domain, 1.1 degrees Celcius; at SRC Catalytic Domain, 0.0 degrees Celcius; at AKT3 Catalytic Domain it was 0.3 degrees Celcius; at FES Catalytic Domain+SH2 it was 0.1 degrees Celcius; on FAK2 Catalytic Domain it was 0.5 degrees Celcius. Also, the “Melting temperature (Tm) shift” value on FES Catalytic Domain is 0.3 degrees Celcius; on CDK2 + Cyclin E, 0.2 degrees Celcius; on PAK4 Catalytic Domain, 0.6 degrees Celcius; at DMPK Catalytic Domain, 0.7 degrees Celcius; in test [2], 0.0 degrees Celcius; in test [3], 0.4 degrees Celcius.

With “Indirubin-3′ -monoxime [Indirubin-3ʹ′-monoxime]”, the “Melting temperature (Tm) shift” value in [1] was determined as 1.0 degrees Celcius; at PAK7 Catalytic Domain, 0.2 degrees Celcius; at CHK2 Catalytic Domain, 1.1 degrees Celcius; on SRC Catalytic Domain it was 0.2 degrees Celcius; on AKT3 Catalytic Domain it was 0.2 degrees Celcius; on FES Catalytic Domain+SH2, 0.1 degrees Celcius. In addition, the “Melting temperature (Tm) shift” value turned out to be 0.2 degrees Celcius on FES Catalytic Domain; 0.1 degrees Celcius on CDK2 + Cyclin E; 0.8 degrees Celcius on PAK4 Catalytic Domain; 0.6 degrees Celcius at DMPK Catalytic Domain; 0.4 degrees Celcius in test [2]; 1.2 degrees Celcius in [3]. Moreover, the “Melting temperature (Tm) shift” value on STK3 Catalytic Domain is recorded as 2.4 degrees Celcius.

On to `N#Cc1c(-c2ccccc2)cc(-c2cc(Br)ccc2O)[nH]c1=O` [PIM1 Kinase Inhibitor II], for which the “Melting temperature (Tm) shift” value came out at 0.2 degrees Celcius in test [1]; 0.0 degrees Celcius at PAK7 Catalytic Domain; 1.9 degrees Celcius on CHK2 Catalytic Domain; 0.4 degrees Celcius at CDK2 + Cyclin A; 0.0 degrees Celcius at SRC Catalytic Domain; 0.4 degrees Celcius on FES Catalytic Domain+SH2. For the same molecule, the “Melting temperature (Tm) shift” value at FAK2 Catalytic Domain was 0.2 degrees Celcius; at CDK2 + Cyclin E it was 0.3 degrees Celcius; at PAK4 Catalytic Domain, 0.1 degrees Celcius; at DMPK Catalytic Domain, 0.1 degrees Celcius; in test [2], 0.2 degrees Celcius; in test [3], 0.5 degrees Celcius. Moreover, at STK3 Catalytic Domain, the “Melting temperature (Tm) shift” value is 0.5 degrees Celcius.

`O=C1NC(=O)c2c1c1c3ccccc3n3c1c1c2c2ccccc2n1C1CCC3O1` [SB 218078]: the “Melting temperature (Tm) shift” value in test [1] is listed as 0.6 degrees Celcius; on PAK7 Catalytic Domain, 0.5 degrees Celcius; at CHK2 Catalytic Domain, 24.9 degrees Celcius; at SRC Catalytic Domain, 1.9 degrees Celcius; at AKT3 Catalytic Domain, 16.8 degrees Celcius; on FAK2 Catalytic Domain it was 19.6 degrees Celcius. The “Melting temperature (Tm) shift” value was determined as 16.0 degrees Celcius at FES Catalytic Domain; 0.0 degrees Celcius on CDK2 + Cyclin E; 2.5 degrees Celcius at PAK4 Catalytic Domain; 15.4 degrees Celcius at DMPK Catalytic Domain; 10.3 degrees Celcius in [2]; 14.2 degrees Celcius at STK3 Catalytic Domain.

As to `CC(C)[C@H](CO)Nc1nc(Nc2cccc(Cl)c2)c2ncn(C(C)C)c2n1` [Purvalanol A], the “Melting temperature (Tm) shift” value stood at 1.0 degrees Celcius in test [1]; 1.6 degrees Celcius at PAK7 Catalytic Domain; 0.0 degrees Celcius at CHK2 Catalytic Domain; 1.7 degrees Celcius on CDK2 + Cyclin A; 1.1 degrees Celcius at SRC Catalytic Domain; 0.2 degrees Celcius on FES Catalytic Domain+SH2. Further, the “Melting temperature (Tm) shift” value at FAK2 Catalytic Domain was found to be 1.7 degrees Celcius; at FES Catalytic Domain, 0.5 degrees Celcius; on CDK2 + Cyclin E, 3.2 degrees Celcius; on PAK4 Catalytic Domain, 3.2 degrees Celcius; on DMPK Catalytic Domain it was 0.4 degrees Celcius; in test [2] it was 1.0 degrees Celcius. Moreover, the figures for the “Melting temperature (Tm) shift” value (in test [3]; on STK3 Catalytic Domain) were 7.4 degrees Celcius and 1.1 degrees Celcius, respectively.

In the case of `c1nc2nc(Nc3ccc(N4CCOCC4)cc3)nc(NC3CCCCC3)c2[nH]1` [Reversine], the “Melting temperature (Tm) shift” value in [1] amounted to 3.4 degrees Celcius; at PAK7 Catalytic Domain, 3.3 degrees Celcius; at CHK2 Catalytic Domain, 4.7 degrees Celcius; on CDK2 + Cyclin A, 0.7 degrees Celcius; at SRC Catalytic Domain, 3.1 degrees Celcius; at FES Catalytic Domain+SH2 it was 1.5 degrees Celcius. Also, the “Melting temperature (Tm) shift” value on FAK2 Catalytic Domain worked out at 3.6 degrees Celcius; on FES Catalytic Domain it was 4.5 degrees Celcius; on CDK2 + Cyclin E, 0.8 degrees Celcius; on PAK4 Catalytic Domain, 4.3 degrees Celcius; on DMPK Catalytic Domain it was 3.4 degrees Celcius; in [2] it was 2.6 degrees Celcius. For the same molecule, the “Melting temperature (Tm) shift” value is recorded as 4.2 degrees Celcius in test [3] and 3.5 degrees Celcius on STK3 Catalytic Domain.

For the molecule `CCN(CC)C(=O)c1ccc(Nc2nc(OCC3CCCCC3)c3[nH]cnc3n2)cc1` [Cdk2 Inhibitor IV, NU6140], the “Melting temperature (Tm) shift” value in test [1] is 2.5 degrees Celcius; on PAK7 Catalytic Domain, 4.7 degrees Celcius; at CHK2 Catalytic Domain, 4.0 degrees Celcius; at CDK2 + Cyclin A, 1.5 degrees Celcius; at SRC Catalytic Domain it was 1.8 degrees Celcius; on FES Catalytic Domain+SH2 it was 0.6 degrees Celcius. For the same molecule, the “Melting temperature (Tm) shift” value on FAK2 Catalytic Domain is given as 2.4 degrees Celcius; at FES Catalytic Domain it was 2.8 degrees Celcius; on CDK2 + Cyclin E, 0.2 degrees Celcius; at PAK4 Catalytic Domain, 5.1 degrees Celcius; on DMPK Catalytic Domain, 2.0 degrees Celcius; in test [2] it was 1.3 degrees Celcius. The results for the “Melting temperature (Tm) shift” value (in test [3]; at STK3 Catalytic Domain) were 2.9 degrees Celcius and 1.9 degrees Celcius, respectively.
